Experimental data: publication doi:10.1101/2025.08.13.670122v1 (bioRxiv, 2025)

Assays:
AT1R [1] = target: T1, AT1R (Homo sapiens, UniProt P30556); assay: β-arrestin2 recruitment BRET (β-arrestin2-RLucII/rGFP-CAAX) in HEK293 cells expressing AT1R; assay type: cell-based; parameters: expressed in transfected cells; host or cells: HEK293 cells, transient PEI transfection; details: for Emax βarr2 (% AngII): HEK293/AT1R, β-arrestin2 BRET, response of the ligand at 10 μM, normalised to AngII; for EC50: HEK293 cells transiently expressing AT1R, β-arrestin2-RLucII/rGFP-CAAX BRET, read 10 min after ligand, mean ± SEM of at least three to five independent experiments, SEM, read-out: EC50 βarr2
T1 sequence (P30556 1-359): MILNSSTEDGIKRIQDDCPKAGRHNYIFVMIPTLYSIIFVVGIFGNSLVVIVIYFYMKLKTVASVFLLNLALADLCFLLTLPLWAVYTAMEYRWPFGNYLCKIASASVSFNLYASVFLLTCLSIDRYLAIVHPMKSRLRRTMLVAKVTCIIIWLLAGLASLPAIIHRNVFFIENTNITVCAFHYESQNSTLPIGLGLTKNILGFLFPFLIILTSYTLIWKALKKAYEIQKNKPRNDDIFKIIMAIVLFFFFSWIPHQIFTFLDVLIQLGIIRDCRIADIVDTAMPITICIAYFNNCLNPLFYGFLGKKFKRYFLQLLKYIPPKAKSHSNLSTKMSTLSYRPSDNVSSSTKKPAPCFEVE
Text: (§1) We utilized a clonal cell line HEK293, referred to hereafter as HEK293 cells, which has been previously described.[7],[8] As a gracious gift from A. Inoue (Tohoku University, Sendai, Miyagi, Japan), CRISPR Gαq/11 and Gα12/13 knockout cell lines (ΔGq/11 and ΔG12/13, respectively), were derived as previously explained.[48] In brief, a CRISPR-Cas9 system was used to target either GNAQ and GNA11 or GNA12 and GNA13 genes in HEK293T cells simultaneously to generate the Gαq/11 and Gα12/13 knockout cell lines. For the production of adenovirus, we utilized HEK293A cells. All cells were grown in DMEM supplemented with 10% FBS and Penicillin-Streptomycin-L-Glutamine (10000 IU penicillin, 10000 µg/mL Streptomycin, 200 mM L-Glutamine) at 37°C in T175 flasks under a 5% CO2 humidified chamber. Periodic testing was carried out for mycoplasma contamination (ABM™, Mycoplasma PCR Detection kit). For all biosensors used, cells underwent transfection with the PEI reagent, employing a PEI:DNA ratio of 3:1. For the Gαq biosensor, HEK293 cells were transfected with the plasmids coding for Gαq-RLucII (120 ng), Gβ1 (3000 ng), Gγ1-GFP10 (3000 ng), human AT1 (3000 ng) and Salmon sperm DNA (SSD) (880 ng). For the β-arrestin2 recruitment assay, HEK293 cells were transfected with the plasmids coding for 120 ng β-arrestin-2-RLucII, 3000 ng AT1, 3000 ng rGFP-CAAX, and 3880 ng SSD. For the measurement of PKC, HEK293 cells were transfected with 3000 ng AT1, 600 ng PKC-c1b, and 6400 ng SSD. […] 100 µL of the cell/DNA mixture was added to white 96-well plates and incubated at 37°C at 5% CO2 for 48 h. For the Rho assay, ΔG12/13 cells were seeded at a density of 9,000 cells per well in poly-ornithine-coated white 96-well plates and transfected the following day. In brief, 1 μg of total DNA in 100 μL of PBS was mixed with 100 μL of PBS containing 3 μL of 1 mg/mL PEI. For Rho signaling, 150 ng of AT1R DNA with 25 ng of PKN-RBD-RlucII [8], and 100 ng of rGFP-CAAX were used. Empty pcDNA was used to reach 1 µg of the total DNA amount in 100 μL of PBS. The DNA was then mixed with 100 μL of PBS containing 3 μL of 1 mg/mL PEI. After a 20-min incubation, the DNA/PEI complexes were dispensed into cells in 96-well plates (15 µL/well), and the experiment was carried out 48 h post-transfection.
On the day of the experiment, each well was washed with 80 µL of Tyrode’s buffer (140 mM NaCl, 2.7 mM KCl, 1 mM CaCl2, 12 mM NaHCO3, 5.6 mM D-glucose, 0.5 mM MgCl2, 0.37 mM NaH2PO4, 25 mM Hepes (pH 7.4)). This was followed by incubation for 1 h in Tyrode’s buffer at room temperature. For the Gαq, β-arrestin-2, and PKC biosensors used in HEK293 cells, coelenterazine 400A (at a final concentration of 5 μM) was added 10 min before stimulation. Cells were then stimulated with increasing doses of the indicated ligand, and BRET signals were measured using a Tristar2 (Berthold) microplate reader 10 min later. For the PKC and Rho biosensors in VSMCs, and the Rho biosensor in ΔG12/13 cells, cells were similarly stimulated with ligands for 1 min, 1 min 30 s, and 3 min, respectively, before BRET measurement. […] BRET signals were then measured using a Synergy2 (BioTek) microplate reader. The applied filter set was 410/80 nm and 515/30 nm, designed to detect the light emissions of RlucII (Renilla luciferase) (donor) and rGFP (acceptor), respectively.

AT1R [2] = target: T1, AT1R; assay: 125I-AngII displacement binding on HEK293 cells expressing human AT1R; parameters: expressed in transfected cells; host or cells: HEK293 cells, transient; freeze-thaw broken cells; details: SEM; read-out: Ki (apparent affinity)
Protocol: HEK293 cells, transiently expressing the human AT1R (3 million cells transfected with 4 μg of AT1R plasmid), were washed once with PBS and submitted to one freeze-thaw cycle. […] Binding assays were carried out in 96-well plates. […] The incubation mixtures were filtered through binding plates (MultiScreen HTS, Merck Millipore, Cork, Ireland) and preincubated with the washing buffer for 1 h at 4°C to remove unbound ligands. The filtered membranes were washed thrice with 200 µL cold binding buffer (4°C). The filters with membranes were retrieved with punch tips (Filter Plates Punch Tips, Merck Millipore, Cork, Ireland). […] The dissociation constant (Ki value) was determined from the IC50 using the Cheng-Prusoff equation and presented as a mean ± SEM of three independent experiments, each conducted in duplicate. VSMC cells were seeded at 80,000 cells per well in poly-ornithine-coated 24-wells. […] The next day, cells were washed thrice with ice-cold PBS, solubilized in 0.5 mL of 0.2 M NaOH/0.05% SDS, and bound radioactivity was counted using a PerkinElmer Wizard 1470 automatic γ-counter. Protein quantities were evaluated using a Bradford assay.

AT1R [3] = target: T1, AT1R; assay: PKC BRET sensor in HEK293 cells expressing AT1R; assay type: cell-based; parameters: expressed in transfected cells; host or cells: HEK293 cells, transient PEI transfection; details: for Emax PKC (% AngII): PKC BRET sensor, response at 10 μM, normalised to AngII; for EC50: PKC-c1b BRET sensor, read 10 min after ligand, mean ± SEM of at least three to five independent experiments, SEM
Text: as §1
On the day of the experiment, each well was washed with 80 µL of Tyrode’s buffer (140 mM NaCl, 2.7 mM KCl, 1 mM CaCl2, 12 mM NaHCO3, 5.6 mM D-glucose, 0.5 mM MgCl2, 0.37 mM NaH2PO4, 25 mM Hepes (pH 7.4)). This was followed by incubation for 1 h in Tyrode’s buffer at room temperature. […] Cells were then stimulated with increasing doses of the indicated ligand, and BRET signals were measured using a Tristar2 (Berthold) microplate reader 10 min later. […] BRET signals were then measured using a Synergy2 (BioTek) microplate reader. […]

With `CC[C@H](C)[C@H](NC(=O)[C@H](Cc1ccc(O)cc1)NC(=O)[C@@H](NC(=O)[C@H](CCCNC(=N)N)NC(=O)[C@@H](N)CC(=O)O)C(C)C)C(=O)N[C@@H](Cc1c[nH]cn1)C(=O)N1CCC[C@H]1C(=O)N[C@@H](Cc1ccc(OC)cc1)C(=O)O` [compound 11] the “Emax βarr2 (% AngII)” value (AT1R [1]) was 105 % AngII, the EC50 (AT1R [1]) was 0.36 ± 0.1 nM and the Ki (AT1R [2]) was 0.23 ± 0.18 nM. The “Emax PKC (% AngII)” value (AT1R [3]) was 105 % AngII and the EC50 (AT1R [3]) was 0.66 ± 0.13 nM.
With `CC[C@H](C)[C@H](NC(=O)[C@H](Cc1ccc(O)cc1)NC(=O)[C@@H](NC(=O)[C@H](CCCNC(=N)N)NC(=O)[C@@H](N)CC(=O)O)C(C)C)C(=O)N[C@@H](Cc1c[nH]cn1)C(=O)N1CCC[C@H]1C(=O)N[C@@H](Cc1ccc(OCc2ccccc2)cc1)C(=O)O` [compound 12] the “Emax βarr2 (% AngII)” value (AT1R [1]) was 89 % AngII, the EC50 (AT1R [1]) was 2.5 ± 0.4 nM and the Ki (AT1R [2]) was 1.4 ± 0.2 nM. The “Emax PKC (% AngII)” value (AT1R [3]) was 51 % AngII and the EC50 (AT1R [3]) was 4.8 ± 3.4 nM.
